Reference: ChEMBL document CHEMBL1142729 (J Med Chem, 2005)

Columns and labels:
Carbonic anhydrase 2 = Carbonic anhydrase 2 (Homo sapiens, UniProt P00918); experiment: Inhibitory constant value for Carbonic anhydrase II in human determined in pH-shift assay
[1] = Inhibition concentration for carbonic anhydrase I and carbonic anhydrase II in rat determined in CO2 hydration assay

Row | Structure (SMILES) | IC50 (Carbonic anhydrase 2) [µM] | IC50 [1] [µM]
1 | NS(=O)(=O)OCC1Oc2ccccc2O1 | 0.28 | 
2 | CC1(C)O[C@@H]2[C@@H](CO[C@@]3(COS(N)(=O)=O)OC(C)(C)O[C@@H]23)O1 [TOPIRAMATE] |  | 8.9
